Assays:
Assay type in all cases: in vivo
[1] = test system: THLAR (Thlaspi arvense); experiment: greenhouse pre-emergence herbicidal test; settings: 0.125 kg/ha
How it was run: (§1)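 Scores run from 0, meaning normal growth, to 100, meaning no emergence or complete destruction of aerial parts, assessed over a 2 to 4 week test period. Active ingredients in water were applied by fine nozzles directly after sowing into loamy sand with about 3.0% humus.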

[2] = test system: AMARE (Amaranthus retroflexus); experiment: greenhouse post-emergence herbicidal test; settings: 62 g/ha
How it was run: (§2)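 Post-emergence greenhouse test on plants grown to 3–15 cm in loamy sand (~3.0% humus), sprayed with active ingredient suspended or emulsified in water. Plants held at 10-25 °C or 20-35 °C by species for 2 to 4 weeks, then damage scored visually 0–100 (100 = complete destruction of aerial parts, 0 = no damage).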

[3] = test system: SETVI (Setaria viridis); experiment: greenhouse post-emergence herbicidal test; settings: 62 g/ha
How it was run: as §2

[4] = test system: MATIN (Matricaria maritima); experiment: greenhouse pre-emergence herbicidal test; settings: 2000 g/ha
How it was run: as §1

[5] = test system: POAAN (Poa annua); experiment: greenhouse pre-emergence herbicidal test; settings: 2000 g/ha
How it was run: as §1

## CC(C)(F)c1nc(N)nc(Nc2cc(C(F)(F)F)cc(C(F)(F)F)c2)n1 [Example 46]
[1]
  herbicidal activity: very good (a very good herbicidal activity is given at values of at least 85)

## CC(C)(C)C(=O)N(c1nc(N)nc(C(C)(C)C)n1)c1c(F)c(F)c(F)c(F)c1F [Example 283]
[2]
  herbicidal activity: very good (a very good herbicidal activity is given at values of at least 85)
[3]
  herbicidal activity: good (a good herbicidal activity is given at values of at least 70)

## CC(=O)N(c1nc(N)nc(C(C)(C)F)n1)c1c(F)c(F)c(F)c(F)c1F [Example 291]
[4]
  herbicidal activity: very good (a very good herbicidal activity is given at values of at least 85)
[5]
  herbicidal activity: very good (a very good herbicidal activity is given at values of at least 85)

Reference: patent US9549558B2, “Herbicidal azines” (BASF SE, priority 2012, dated 2017)
